Laboratory results: PubChem BioAssay (NCI)
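These data come from cells grown in 96-well plates and exposed to compound for 48 hours at five concentrations. GI50: concentration for 50% inhibition of growth. TGI marks complete inhibition of growth.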

Experiments:
Test in all cases: inhibition of tumour cell growth, NCI panel, 48 h
[1] = test system: ACHN renal
[2] = test system: HL-60(TB) leukemia
[3] = test system: K-562 leukemia
[4] = test system: U251 CNS
[5] = test system: HCT-15 colon
[6] = test system: SNB-19 CNS
[7] = test system: OVCAR-3 ovarian
[8] = test system: SR leukemia
[9] = test system: SK-MEL-28 melanoma
[10] = test system: MDA-MB-435

Compound | TGI [1] [µM] | TGI [2] [µM] | TGI [3] [µM] | TGI [4] [µM] | TGI [5] [µM] | TGI [6] [µM] | TGI [7] [µM] | TGI [8] [µM] | TGI [9] [µM] | TGI [10] [µM] | GI50 [1] [µM] | GI50 [2] [µM] | GI50 [3] [µM] | GI50 [4] [µM] | GI50 [5] [µM] | GI50 [9] [µM] | GI50 [6] [µM] | GI50 [7] [µM] | GI50 [8] [µM] | GI50 [10] [µM]
CC(C)(C)c1cc2c(O)c3cccc4c(=O)c5cccc6c5-c(c34)c2c(c1)c6=O | > 100 | > 100 | > 100 | > 100 | > 100 | > 100 | > 100 | 30.4 | – | – | – | – | – | – | – | – | – | – | – | –
O=S(=O)(c1ccccc1)N1CCN(S(=O)(=O)c2ccccc2)c2ccccc21 | > 100 | – | > 100 | > 100 | > 100 | > 100 | > 100 | > 100 | > 100 | > 100 | – | – | – | – | – | – | – | – | – | –
O=C(Nc1ccccc1-c1nn(C(=S)Nc2ccccc2)c(=S)n(C(=S)Nc2ccccc2)c1=O)C(F)(F)F | > 95.6 | 58.5 | > 95.6 | > 70.9 | > 78.3 | > 100 | > 72.5 | – | > 100 | – | – | – | – | – | – | – | – | – | – | –
COc1ccc(-c2cn[nH]c2-c2cc(OC)c(OC)c(OC)c2)cc1 | 21.3 | 0.0671 | 26.7 | 1.7 | 21.8 | > 74.9 | 0.0694 | 13.9 | 32 | – | 0.0615 | 0.0249 | < 0.0109 | 0.0358 | 0.0217 | 0.0376 | 0.0631 | 0.0228 | 0.0177 | –
CN(C)CCn1c2c3ccccc3ccc2c2oc(=O)c3ccccc3c21 | 18.4 | > 100 | > 100 | 20 | 46.9 | 29.4 | 16.9 | – | 18.4 | – | – | – | – | – | – | – | – | – | – | –
CCOC(=O)C1=C(C(=O)OCC)C2c3ccccc3C=CN2C(C(=O)OCC)=C(SC)S1 (stereo not drawn) | > 100 | > 100 | > 100 | > 100 | > 100 | > 100 | > 100 | > 100 | > 100 | – | – | – | – | – | – | – | – | – | – | –
c1ccc(NCn2cnc3ccccc32)cc1 | > 100 | – | > 100 | > 100 | > 100 | > 100 | > 100 | – | > 100 | – | – | – | – | – | – | – | – | – | – | –
O=S(=O)(N/N=C/c1cccc(/C=N/NS(=O)(=O)c2ccccc2)c1)c1ccccc1 | > 100 | > 100 | > 100 | > 100 | > 100 | – | > 100 | > 100 | > 100 | – | – | – | – | – | – | – | – | – | – | –
CC(C)=CCC(O)C1=CC(=O)c2c(O)ccc(O)c2C1=O (stereo not drawn) | 1.86 | 0.0659 | 0.602 | 4.74 | 0.526 | 7.78 | 2.55 | – | 2.86 | 2.82 | – | – | – | – | – | – | – | – | – | –
COC(=O)C(CCCN1C(=O)c2ccccc2C1=O)C(=O)OC | > 100 | > 100 | > 100 | > 100 | > 100 | > 100 | > 100 | – | > 100 | – | – | – | – | – | – | – | – | – | – | –
NC(=O)c1ccccc1NC(=O)C(=O)C(C(=O)c1ccc(Cl)c(Cl)c1)C1OC(=O)c2ccccc21 (stereo not drawn) | > 100 | > 100 | > 100 | > 100 | > 100 | > 100 | > 100 | > 100 | – | – | – | – | – | – | – | – | – | – | – | –
COc1cc(/C(C#N)=C/c2nc3c(N4CCOCC4)nc(Cl)nc3n2C)cc(OC)c1OC | 4.99 | < 0.01 | > 38.4 | > 32.2 | 6.94 | > 100 | < 0.01 | – | > 64.8 | – | < 0.01 | < 0.01 | < 0.01 | < 0.01 | < 0.01 | 1.03 | < 0.01 | < 0.01 | < 0.01 | –
CCCCCCCCCCCCC(O)c1ccc(C#CCCCCCCCCCO)o1 (stereo not drawn) | 33.5 | – | 22.6 | 33.6 | 36.8 | 83.1 | 34 | – | > 100 | 34.3 | 18.8 | – | 3.73 | 18.5 | 18.2 | 37.2 | 31.7 | 19.1 | – | 18.9
Cc1ccc(/C=C/C(=O)c2cccc3ccccc23)cc1 | 30.7 | 28.3 | 44.3 | 25.6 | 35.3 | 29.6 | 31.7 | 78.2 | 35.4 | – | – | – | – | – | – | – | – | – | – | –
CC(=O)OCCOCNC(=S)N/N=C(\C)c1cnccn1 | 86.3 | 76.1 | > 100 | > 100 | > 100 | > 100 | > 100 | > 100 | > 100 | – | – | – | – | – | – | – | – | – | – | –
O=c1c(-c2ccccc2)c2oc(c1-c1ccccc1)CSCc1cccc(c1)CSC2 | > 100 | > 100 | > 100 | 88.2 | > 100 | > 100 | 77 | – | 87.4 | – | – | – | – | – | – | – | – | – | – | –
C/C(CCn1[nH]c(=O)ccc1=O)=N\NC(=O)C(=O)NN | > 100 | > 100 | > 100 | – | > 100 | > 100 | > 100 | – | > 100 | – | – | – | – | – | – | – | – | – | – | –
COc1nc(NC2OC(COC(C)=O)C(OC(C)=O)C(OC(C)=O)C2OC(C)=O)c2c(OC(C)=O)cc(=O)oc2n1 (stereo not drawn) | 29.6 | > 100 | > 100 | > 100 | > 100 | > 100 | > 100 | – | – | – | – | – | – | – | – | – | – | – | – | –
Cc1ccc(/C=C/C(=O)CCN(C)C)cc1 | 32.9 | 47 | > 100 | 30 | 38.2 | > 100 | 39.4 | 62.7 | 33.8 | – | – | – | – | – | – | – | – | – | – | –
CC(=O)NNc1nc(C)c(C(=O)/C=C/c2ccc(NC(C)=O)cc2)s1 | > 100 | > 100 | > 100 | > 100 | > 100 | > 100 | > 100 | – | > 100 | – | – | – | – | – | – | – | – | – | – | –
CC(=O)O/N=C(/C)c1ccccc1O | > 100 | > 100 | > 100 | > 100 | – | > 100 | > 100 | – | > 100 | – | – | – | – | – | – | – | – | – | – | –
Oc1[nH]c2ccccc2c1N=Nc1nc(-c2ccc(Br)cc2)cs1 | 49.1 | – | – | 28.1 | 68.3 | 40.7 | 67.7 | – | 53.9 | > 100 | – | – | – | – | – | – | – | – | – | –
S=c1sc2c(n1-c1ccccc1)NC=NC2S (stereo not drawn) | > 100 | > 100 | > 100 | > 100 | > 100 | > 100 | > 100 | > 100 | > 100 | – | – | – | – | – | – | – | – | – | – | –
